Several values for one entry are separate records, joined by “and”; a condition that tells them apart may be missing. Equal values may be shown once. Read-outs that look alike come from different tables or passages of the source. Square brackets hold non-standard residues; d marks the D form. Peptide text beside a SMILES is read from it. * marks the point of attachment. X3 = C#CC[N+](C)(C)[C@@H](Cc1ccccc1)C(=O)*; X1 = C[N+](C)(C)[C@@H](Cc1ccccc1)C(=O)*; NMe2Phe = CN(C)[C@@H](Cc1ccccc1)C(=O)*; X4 = CCN(CC)[C@@H](Cc1ccccc1)C(=O)*; NMeF = CN[C@@H](Cc1ccccc1)C(=O)O; Cha = N[C@@H](CC1CCCCC1)C(=O)O; dCha = N[C@H](CC1CCCCC1)C(=O)O
How the values were obtained:
motilin receptor = biological target: T1, motilin receptor (Oryctolagus cuniculus, UniProt G1T803); assay: Determination of motilin receptor binding affinity (displacement of [125I-Tyr7, Nle13]motilin(porcine)); design: species or system rabbit
T1 construct: from tissue; host or cells: rabbit antral smooth muscle membranes
Description: The motilin receptor binding affinity of the peptides of this invention was determined by using the general procedure of Bormans, Peelers and Vantrappen, Regul. […] Fitting was performed using the iterative least-squares procedure of the SAS-software package (SAS Institute, Inc., Cary, N.C., USA).

[1] = biological target: segments of rabbit duodenum (Oryctolagus cuniculus, UniProt G1T803); assay: Rabbit duodenal smooth muscle strip tissue bath assay; type: cell-based; conditions: negative logarithm of the dose giving 50% of the maximal response to motilin; isotonic contraction of rabbit duodenum segments
Description: The contractile response of segments of rabbit duodenum was determined isotonically in the tissue bath according to the procedure of Depoortere et at., J. Gastrointestinal Motility, 1, 150-159 (1989). The experimental protocol consisted of an equilibration period of 1 hour; a challenge with 10^-4 M acetylcholine followed by a wash-out period; a cumulative dose-response curve of a compound with, at the end, the addition of 10^-7 M motilin; and finally 10^-4 M acetylcholine. If the final response to 10^-4 M acetylcholine differed by more than 5% from the initial response, the results were discarded. The compounds were tested in the concentration range 10^-11 to 10^-4 M. The point corresponding to 50% of the maximal response to motilin (Emax) was determined by fitting the equation E=Emax (1+EC50 /[L]) through the data points. […] The dose giving 50% of the response is expressed using its negative logarithm (pEC50).

[2] = negative logarithm of the concentration displacing 50% of [125I-Tyr7, Nle13]motilin(porcine) from rabbit antral smooth muscle membranes, read-out: pIC50 (converted)

Chain of segments of rabbit duodenum (G1T803 1-400): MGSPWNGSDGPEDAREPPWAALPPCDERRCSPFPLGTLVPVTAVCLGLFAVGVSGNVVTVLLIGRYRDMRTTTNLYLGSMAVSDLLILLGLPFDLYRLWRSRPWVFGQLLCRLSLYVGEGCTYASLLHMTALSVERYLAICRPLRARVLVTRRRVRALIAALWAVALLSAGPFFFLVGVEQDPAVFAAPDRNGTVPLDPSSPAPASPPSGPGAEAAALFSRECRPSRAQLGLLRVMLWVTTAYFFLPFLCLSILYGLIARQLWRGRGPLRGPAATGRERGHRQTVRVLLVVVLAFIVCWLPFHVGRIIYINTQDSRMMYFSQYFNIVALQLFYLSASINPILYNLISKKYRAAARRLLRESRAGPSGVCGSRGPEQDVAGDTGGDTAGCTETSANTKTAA
T1 sequence (G1T803 1-400): as above

Row | SMILES | IC50 (motilin receptor; [2]) | pEC50 [1] | IC50 (motilin receptor; pIC50, negative logarithm of the concentration displacing 50% of [125I-Tyr7, Nle13]motilin(porcine) from rabbit antral smooth muscle membranes)
1 | CC[C@H](C)[C@H](NC(=O)[C@H](C)NC(=O)[C@@H](NC(=O)[C@H](N)CC1CCCCC1)C(C)C)C(=O)N[C@@H](Cc1ccccc1)C(=O)N[C@H](C(=O)N[C@@H](Cc1ccc(O)cc1)C(=O)NCC(=O)N[C@@H](CCC(=O)O)C(=O)N[C@@H](CC(C)C)C(=O)N[C@@H](C)C(=O)N[C@H](CCCNC(=N)N)C(=O)N[C@@H](CC(C)C)C(=O)N[C@H](CCCCN)C(N)=O)[C@@H](C)O (H-[dCha]VAIFTYGELA[dR]L[dK]-NH2) | 0.933 nM | 7.25 | 
2 | CC[C@H](C)[C@H](NC(=O)[C@H](C)NC(=O)[C@@H](NC(=O)[C@H](Cc1ccccc1)NC)C(C)C)C(=O)N[C@@H](Cc1ccccc1)C(=O)N[C@H](C(=O)N[C@@H](Cc1ccc(O)cc1)C(=O)NCC(=O)N[C@@H](CCC(=O)O)C(=O)N[C@@H](CC(C)C)C(=O)N[C@@H](C)C(=O)N[C@H](CCCNC(=N)N)C(=O)N[C@@H](CC(C)C)C(=O)N[C@H](CCC(N)=O)C(N)=O)[C@@H](C)O (H-[NMeF]VAIFTYGELA[dR]L[dQ]-NH2) | 0.724 nM | 7.32 | 
3 | CC[C@H](C)[C@H](NC(=O)[C@H](C)NC(=O)[C@@H](NC(=O)[C@H](Cc1ccccc1)NC)C(C)C)C(=O)N[C@@H](Cc1ccccc1)C(=O)N[C@H](C(=O)N[C@@H](Cc1ccc(O)cc1)C(=O)NCC(=O)N[C@@H](CCC(=O)O)C(=O)N[C@@H](CC(C)C)C(=O)N[C@@H](CCC(N)=O)C(=O)N[C@H](CCCNC(=N)N)C(=O)N[C@@H](CC(C)C)C(=O)N[C@H](CCC(N)=O)C(N)=O)[C@@H](C)O (H-[NMeF]VAIFTYGELQ[dR]L[dQ]-NH2) |  | 8.07 | 0.776 nM
4 | CC[C@H](C)[C@H](NC(=O)[C@@H]1CCCN1C(=O)[C@@H](NC(=O)[C@@H](N)CC1CCCCC1)C(C)C)C(=O)N[C@@H](Cc1ccccc1)C(=O)N[C@H](C(=O)N[C@@H](Cc1ccc(O)cc1)C(=O)NCC(=O)N[C@@H](CCC(=O)O)C(=O)N[C@@H](CC(C)C)C(=O)N[C@@H](CCC(N)=O)C(=O)N[C@H](CCCNC(=N)N)C(=O)N[C@@H](CC(C)C)C(=O)N[C@@H](CCC(N)=O)C(=O)O)[C@@H](C)O [[Cha^1, D-Arg^12, Leu^13]pMOT(1-14)] (H-[Cha]VPIFTYGELQ[dR]LQ-OH) | 1.78 nM | 7.60 | 
5 | CC[C@H](C)[C@H](NC(=O)[C@@H]1CCCN1C(=O)[C@@H](NC(=O)[C@H](Cc1ccccc1)[N+](C)(C)C)C(C)C)C(=O)N[C@@H](Cc1ccccc1)C(=O)N[C@H](C(=O)N[C@@H](Cc1ccc(O)cc1)C(=O)NCC(=O)N[C@@H](CCC(=O)O)C(=O)N[C@@H](CC(C)C)C(=O)N[C@@H](CCC(N)=O)C(=O)N[C@H](CCCNC(=N)N)C(=O)N[C@@H](CC(C)C)C(=O)N[C@@H](CCC(N)=O)C(=O)O)[C@@H](C)O (X1-VPIFTYGELQ[dR]LQ-OH) | 3.55 nM and 2.14 nM | 7.52 | 
6 | CC[C@H](C)[C@H](NC(=O)[C@H](C)NC(=O)[C@@H](NC(=O)[C@H](Cc1ccccc1)[N+](C)(C)C)C(C)C)C(=O)N[C@@H](Cc1ccccc1)C(=O)N[C@H](C(=O)N[C@@H](Cc1ccc(O)cc1)C(=O)NCC(=O)N[C@@H](CCC(=O)O)C(=O)N[C@@H](CC(C)C)C(=O)N[C@@H](C)C(=O)N[C@H](CCCNC(=N)N)C(=O)N[C@@H](CC(C)C)C(=O)N[C@H](CCC(N)=O)C(N)=O)[C@@H](C)O (X1-VAIFTYGELA[dR]L[dQ]-NH2) | 1.45 nM | 7.22 | 
7 | C#CC[N+](C)(C)[C@@H](Cc1ccccc1)C(=O)N[C@H](C(=O)N1CCC[C@H]1C(=O)N[C@H](C(=O)N[C@@H](Cc1ccccc1)C(=O)N[C@H](C(=O)N[C@@H](Cc1ccc(O)cc1)C(=O)NCC(=O)N[C@@H](CCC(=O)O)C(=O)N[C@@H](CC(C)C)C(=O)N[C@@H](CCC(N)=O)C(=O)N[C@@H](CCCNC(=N)N)C(=O)N[C@@H](CC(C)C)C(=O)N[C@@H](CCC(N)=O)C(N)=O)[C@@H](C)O)[C@@H](C)CC)C(C)C (X3-VPIFTYGELQRLQ-NH2) | 2.14 nM | 7.65 | 
8 | CC[C@H](C)[C@H](NC(=O)[C@H](C)NC(=O)[C@@H](NC(=O)[C@H](Cc1ccccc1)[N+](C)(C)C)C(C)C)C(=O)N[C@@H](Cc1ccccc1)C(=O)N[C@H](C(=O)N[C@@H](Cc1ccc(O)cc1)C(=O)NCC(=O)N[C@@H](CCC(=O)O)C(=O)N[C@@H](CC(C)C)C(=O)N[C@@H](C)C(=O)N[C@H](CCCNC(=N)N)C(=O)N[C@@H](CC(C)C)C(=O)N[C@@H](CCC(N)=O)C(N)=O)[C@@H](C)O (X1-VAIFTYGELA[dR]LQ-NH2) | 1.95 nM | 7.31 | 
9 | CC[C@H](C)[C@H](NC(=O)[C@@H]1CCCN1C(=O)[C@@H](NC(=O)[C@@H](N)Cc1ccccc1)C(C)C)C(=O)N[C@@H](Cc1ccccc1)C(=O)N[C@H](C(=O)N[C@@H](Cc1ccc(O)cc1)C(=O)NCC(=O)N[C@@H](CCC(=O)O)C(=O)N[C@@H](CC(C)C)C(=O)N[C@@H](C)C(=O)N[C@H](CCCNC(=N)N)C(=O)N[C@@H](CC(C)C)C(=O)N[C@@H](CCC(N)=O)C(=O)O)[C@@H](C)O [[Ala^11, D-Arg^12, Leu^13]pMOT(1-14)] (H-FVPIFTYGELA[dR]LQ-OH) | 1.66 nM | 7.63 | 
10 | CC[C@H](C)[C@H](NC(=O)[C@@H]1CCCN1C(=O)[C@@H](NC(=O)[C@H](Cc1ccccc1)N(C)C)C(C)C)C(=O)N[C@@H](Cc1ccccc1)C(=O)N[C@H](C(=O)N[C@@H](Cc1ccc(O)cc1)C(=O)NCC(=O)N[C@@H](CCC(=O)O)C(=O)N[C@@H](CC(C)C)C(=O)N[C@@H](C)C(=O)N[C@H](CCCNC(=N)N)C(=O)N[C@@H](CC(C)C)C(=O)N[C@@H](CCC(N)=O)C(N)=O)[C@@H](C)O (NMe2Phe-VPIFTYGELA[dR]LQ-NH2) | 1.95 nM | 7.76 | 
11 | CC[C@H](C)[C@H](NC(=O)[C@H](C)NC(=O)[C@@H](NC(=O)[C@H](Cc1ccccc1)[N+](C)(C)C)C(C)C)C(=O)N[C@@H](Cc1ccccc1)C(=O)N[C@H](C(=O)N[C@@H](Cc1ccc(O)cc1)C(=O)NCC(=O)N[C@@H](CCC(=O)O)C(=O)N[C@@H](CC(C)C)C(=O)N[C@@H](CCC(N)=O)C(=O)N[C@@H](CCCNC(=N)N)C(=O)N[C@@H](CC(C)C)C(=O)N[C@@H](CCCCN)C(N)=O)[C@@H](C)O (X1-VAIFTYGELQRLK-NH2) | 1.51 nM | 7.58 | 
12 | CC[C@H](C)[C@H](NC(=O)[C@@H]1CCCN1C(=O)[C@@H](NC(=O)[C@@H](N)Cc1ccccc1)C(C)C)C(=O)N[C@@H](Cc1ccccc1)C(=O)N[C@H](C(=O)N[C@@H](Cc1ccc(O)cc1)C(=O)NCC(=O)N[C@@H](CCC(=O)O)C(=O)N[C@@H](CC(C)C)C(=O)N[C@@H](CCC(N)=O)C(=O)N[C@H](CCCNC(=N)N)C(=O)N[C@@H](CC(C)C)C(=O)N[C@@H](CCC(N)=O)C(N)=O)[C@@H](C)O [[D-Arg^13, Leu^13]pMOT(1-14) amide] (H-FVPIFTYGELQ[dR]LQ-NH2) | 2.45 nM | 7.50 | 
13 | CC[C@H](C)[C@H](NC(=O)[C@@H]1CCCN1C(=O)[C@@H](NC(=O)[C@H](Cc1ccccc1)N(CC)CC)C(C)C)C(=O)N[C@@H](Cc1ccccc1)C(=O)N[C@H](C(=O)N[C@@H](Cc1ccc(O)cc1)C(=O)NCC(=O)N[C@@H](CCC(=O)O)C(=O)N[C@@H](CC(C)C)C(=O)N[C@@H](CCC(N)=O)C(=O)N[C@@H](CCCNC(=N)N)C(=O)N[C@@H](CC(C)C)C(=O)N[C@@H](CCC(N)=O)C(N)=O)[C@@H](C)O [[Et2 Phe^1, Leu^13]pMOT(1-14) amide] (X4-VPIFTYGELQRLQ-NH2) | 3.89 nM | 7.54 | 
14 | CC[C@H](C)[C@H](NC(=O)[C@@H]1CCCN1C(=O)[C@@H](NC(=O)[C@@H](N)Cc1ccccc1)C(C)C)C(=O)N[C@@H](Cc1ccccc1)C(=O)N[C@H](C(=O)N[C@@H](Cc1ccc(O)cc1)C(=O)NCC(=O)N[C@@H](CCC(=O)O)C(=O)N[C@@H](CC(C)C)C(=O)N[C@@H](CCC(N)=O)C(=O)N[C@H](CC(N)=O)C(=O)N[C@@H](CC(C)C)C(=O)N[C@@H](CCC(N)=O)C(=O)O)[C@@H](C)O [[D-Asn^12, Leu^13]pMOT(1-14)] (H-FVPIFTYGELQ[dN]LQ-OH) | 7.59 nM | 6.82 | 
15 | CC[C@H](C)[C@H](NC(=O)[C@H](C)NC(=O)[C@@H](NC(=O)[C@@H](N)Cc1ccccc1)C(C)C)C(=O)N[C@@H](Cc1ccccc1)C(=O)N[C@H](C(=O)N[C@@H](Cc1ccc(O)cc1)C(=O)NCC(=O)N[C@@H](CCC(=O)O)C(=O)N[C@@H](CC(C)C)C(=O)N[C@@H](CCC(N)=O)C(=O)N[C@H](CCCNC(=N)N)C(=O)N[C@@H](CC(C)C)C(=O)N[C@@H](CCC(N)=O)C(=O)O)[C@@H](C)O [[Ala^3, D-Arg^ 12, Leu^13]pMOT(1-14)] (H-FVAIFTYGELQ[dR]LQ-OH) | 2.14 nM | 7.71 | 

From patent US5422341A, “Motilin-like polypeptides with gastrointestinal motor stimulating activity” (Ohmeda Pharmaceutical Products Division Inc., priority 1993, dated 1995)
